# Measurements published in patent US20100047308A1, “Production methods of virus inactivated and cell-free body implant” (priority 2006, published 2010).
# Tested on: L-929 cells (fibroblasts)
# Assay: Cytotoxicity of graft exudates according to USP <87> (cell lysis, inhibition of cell growth)
# Settings: 24 hours, USP <87> qualitative method
# Method: The acellular dermal implants obtained after treatment with the solvent/detergent were powdered and mixed with 1 ml of distilled water for every 300 mg of the powder. To 4 g of the mixed sample was added 20 ml of physiological saline, followed by extraction at 37° C. for 72 hours. Tests were conducted within 24 hours after the completion of the extraction. The extract was mixed at a volume ratio of 1:2 with a culture medium (MEM). L-929 cells (fibroblasts), which are usually used in inhibition tests because of their high susceptibility to chemicals, were plated at a density of 10^5 cells per ml before culturing. […] This experiment was repeated three times while cytotoxicity was evaluated according to the qualitative method of USP <87>.
# In order to examine whether the solvent/detergent solution remaining in the acellular dermal implants had toxic effects on cells of the patient, the exudates from the grafts were assayed for cytotoxicity.
structure (smiles),measurement,value
"C[S+](C)[O-] [Positive Control, DMSO]",Exudate Grades (cytotoxicity),4
